Data as given in patent US11566007B2, “Ras inhibitors” (Revolution Medicines, Inc., priority 2019, dated 2023).
Where two headings read alike, the source gives them in different places.

Tests used:
[1] = system: NCI-H358 cells (K-Ras G12C); experiment: Potency assay: pERK in NCI-H358 cells; format: cell-based, human; settings: Homo sapiens, NCI-H358; H358 KRAS G12C; read-out: pERK EC50
How it was run: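 4 h cpd, 37 °C; 10-pt 3-fold series, 10 mM DMSO top stock, duplicates. Readout pERK: AlphaLISA SureFire Ultra or In-Cell Western (IR-800CW secondary, DRAQ5 DNA stain). IC50, 4-PL fit vs log conc.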

NCI-H358 (K-Ras G12C) = experiment: CellTiter-Glo cell viability assay, NCI-H358; format: cell-based, human; settings: Homo sapiens, NCI-H358, 120 h, class symbols
Procedure: Note—The following protocol describes a procedure for monitoring cell viability of K-Ras mutant cancer cell lines in response to a compound of the invention. Other RAS isoforms may be employed, though the number of cells to be seeded will vary based on cell line used.
Test compounds (132.5 nL) were directly dispensed into the assay plates containing cells. […] On day 5, assay plates and their contents were equilibrated to room temperature for approximately 30 minutes. […] Luminescence was measured using the PerkinElmer Enspire. Data were normalized by the following: (Sample signal/Avg. DMSO)*100. The data were fit using a four-parameter logistic fit.

[2] = NCI-H358, 5-day treatment, read-out: Additional H358 Cell Viability assay data (K-Ras G12C, IC50)
[3] = read-out: Additional H358 Cell Viability assay data (K-Ras G12C, IC50, uM), NCI-H358, 5-day treatment

C=CC(=O)N1CC[C@H](C(=O)N(C)[C@H](C(=O)N[C@H]2Cc3cc(O)cc(c3)-c3ccc4c(c3)c(c(-c3cccc(CN(C)C)c3)n4CC)CC(C)(C)COC(=O)[C@@H]3CCCN(N3)C2=O)C(C)C)C1 [Example A30]
EC50 [1]: < 5 µM | IC50 (NCI-H358 (K-Ras G12C); [2]): 0.01 to 0.1 µM

C=CC(=O)N1CC2(CCN([C@H](C(=O)N[C@H]3Cc4cc(O)cc(c4)-c4ccc5c(c4)c(c(-c4ccccc4CCOC)n5CC)CC(C)(C)COC(=O)[C@@H]4CCCN(N4)C3=O)C(C)C)C2=O)C1 [Example A31]
EC50 [1]: < 5 µM | IC50 (NCI-H358 (K-Ras G12C); [2]): 0.01 to 0.1 µM

C=CC(=O)N1CCC(C(=O)N(C)[C@H](C(=O)N[C@H]2Cc3cc(O)cc(c3)-c3ccc4c(c3)c(c(-c3ccccc3CN(C)C)n4CC)CC(C)(C)COC(=O)[C@@H]3CCCN(N3)C2=O)C(C)C)CC1 [Example A33]
EC50 [1]: < 5 µM | IC50 (NCI-H358 (K-Ras G12C); [2]): 0.1 to 1 µM

C=CC(=O)N1CC[C@H](C(=O)N(C)[C@H](C(=O)N[C@H]2Cc3cc(O)cc(c3)-c3ccc4c(c3)c(c(-c3ccc5cc(CN(C)C)n(C)c5c3)n4CC)CC(C)(C)COC(=O)[C@@H]3CCCN(N3)C2=O)C(C)C)C1 [Example A35]
EC50 [1]: < 5 µM | IC50 (NCI-H358 (K-Ras G12C); [2]): 0.01 to 0.1 µM

CCn1c(-c2ccccc2CCOC)c2c3cc(ccc31)-c1cc(O)cc(c1)C[C@H](NC(=O)[C@H](C(C)C)N(C)C(=O)[C@H]1CCN(C(=O)C#CCN(C)C)C1)C(=O)N1CCC[C@H](N1)C(=O)OCC(C)(C)C2 [Example A38]
EC50 [1]: < 5 µM | IC50 (NCI-H358 (K-Ras G12C); [2]): < 0.01 µM

C=CC(=O)N1CC[C@H](C(=O)N(C)[C@H](C(=O)N[C@H]2Cc3cc(O)cc(c3)-c3ccc4c(c3)c(c(-c3ccc(C5CCN(C)CC5)cc3)n4CC)CC(C)(C)COC(=O)[C@@H]3CCCN(N3)C2=O)C(C)C)C1 [Example A39]
EC50 [1]: < 5 µM | IC50 (NCI-H358 (K-Ras G12C); [2]): 0.01 to 0.1 µM

C=CC(=O)N1CC[C@H](C(=O)N(C)[C@H](C(=O)N[C@H]2Cc3cc(O)cc(c3)-c3ccc4c(c3)c(c(-c3ccc5c(c3)CCN(C)C5)n4CC)CC(C)(C)COC(=O)[C@@H]3CCCN(N3)C2=O)C(C)C)C1 [Example A40]
EC50 [1]: < 5 µM | IC50 (NCI-H358 (K-Ras G12C); [2]): 0.01 to 0.1 µM

C=CC(=O)N1C[C@H](C)[C@H](C(=O)N(C)[C@H](C(=O)N[C@H]2Cc3cc(O)cc(c3)-c3ccc4c(c3)c(c(-c3ccccc3CCOC)n4CC)CC(C)(C)COC(=O)[C@@H]3CCCN(N3)C2=O)C(C)C)C1 [Example A41]
EC50 [1]: < 5 µM | IC50 (NCI-H358 (K-Ras G12C); [2]): 0.01 to 0.1 µM

C=CC(=O)N1CC[C@H](C(=O)N(C)[C@H](C(=O)N[C@H]2Cc3cc(N)cc(c3)-c3ccc4c(c3)c(c(-c3ccccc3COC)n4CC)CC(C)(C)COC(=O)[C@@H]3CCCN(N3)C2=O)C(C)C)C1 [Example A42]
EC50 [1]: < 5 µM | IC50 (NCI-H358 (K-Ras G12C); [2]): 0.1 to 1 µM

C=CC(=O)N1C[C@H](C)[C@H](C(=O)N(C)[C@H](C(=O)N[C@H]2Cc3cc(O)cc(c3)-c3ccc4c(c3)c(c(-c3ccccc3CN(C)C)n4CC)CC(C)(C)COC(=O)[C@@H]3CCCN(N3)C2=O)C2CCCC2)C1 [Example A43]
EC50 [1]: < 5 µM | IC50 (NCI-H358 (K-Ras G12C); [2]): 0.01 to 0.1 µM

C=CC(=O)N1CC[C@H](C(=O)N(C)[C@H](C(=O)N[C@H]2Cc3cc(O)cc(c3)-c3ccc4c(c3)c(c(-c3cccnc3COCC)n4CC)CC(C)(C)COC(=O)[C@@H]3CCCN(N3)C2=O)C(C)C)C1 [Example A44]
EC50 [1]: < 5 µM | IC50 (NCI-H358 (K-Ras G12C); [2]): 0.01 to 0.1 µM

C=CC(=O)N1CC[C@H](C(=O)N(C)[C@H](C(=O)N[C@H]2Cc3cc(O)cc(c3)-c3ccc4c(c3)c(c(-c3cccnc3)n4CC)CC(C)(C)COC(=O)[C@@H]3CCCN(N3)C2=O)C(C)C)C1 [Example A45]
EC50 [1]: < 5 µM | IC50 (NCI-H358 (K-Ras G12C); [2]): 0.01 to 0.1 µM

CCn1c(-c2ccccc2CN(C)C)c2c3cc(ccc31)-c1cc(O)cc(c1)C[C@H](NC(=O)[C@H](C(C)C)N(C)C(=O)c1ccc(NC(=O)/C=C/CN(C)C)cn1)C(=O)N1CCC[C@H](N1)C(=O)OCC(C)(C)C2 [Example A46]
EC50 [1]: < 5 µM | IC50 (NCI-H358 (K-Ras G12C); [2]): > 1 µM

CCn1c(-c2ccccc2CN(C)C)c2c3cc(ccc31)-c1cc(O)cc(c1)C[C@H](NC(=O)[C@H](C(C)C)N(C)C(=O)[C@H]1CCN(C(=O)/C=C/CN(C)C)C1)C(=O)N1CCC[C@H](N1)C(=O)OCC(C)(C)C2 [Example A47]
EC50 [1]: < 5 µM | IC50 (NCI-H358 (K-Ras G12C); [2]): 0.01 to 0.1 µM

C=CC(=O)N1CC[C@H](C(=O)N(C)[C@H](C(=O)N[C@H]2Cc3cc(O)cc(c3)-c3ccc4c(c3)c(c(-c3ccc5c(c3)OCCN5C)n4CC)CC(C)(C)COC(=O)[C@@H]3CCCN(N3)C2=O)C(C)C)C1 [Example A50]
EC50 [1]: < 5 µM | IC50 (NCI-H358 (K-Ras G12C); [2]): 0.1 to 1 µM

C=CC(=O)N1CC[C@H](C(=O)N(C)[C@H](C(=O)N[C@H]2Cc3cc(O)cc(c3)-c3ccc4c(c3)c(c(-c3ccc(CN(C)C)cc3COC)n4CC)CC(C)(C)COC(=O)[C@@H]3CCCN(N3)C2=O)C(C)C)C1 [Example A51]
EC50 [1]: < 5 µM | IC50 (NCI-H358 (K-Ras G12C); [2]): 0.01 to 0.1 µM

C=CC(=O)N1C[C@H](C)[C@H](C(=O)N(C)[C@H](C(=O)N[C@H]2Cc3cc(O)cc(c3)-c3ccc4c(c3)c(c(-c3ccccc3CN(C)C)n4CC)CC(C)(C)COC(=O)[C@@H]3CCCN(N3)C2=O)C(C)C)C1 [Example A52]
EC50 [1]: < 5 µM | IC50 (NCI-H358 (K-Ras G12C); [2]): 0.01 to 0.1 µM

CCn1c(-c2cccnc2COC)c2c3cc(ccc31)-c1cc(O)cc(c1)C[C@H](NC(=O)[C@H](C(C)C)N(C)C(=O)[C@H]1CCN(C(=O)/C=C/CN(C)C)C1)C(=O)N1CCC[C@H](N1)C(=O)OCC(C)(C)C2 [Example A54, (2S)-2-{1-[(3S)-1-[(2E)-4-(dimethylamino)but-2-enoyl]pyrrolidin-3-yl]-N-methylformamido}-N-[(8S,14S)-22-ethyl-4-hydroxy-21-[2-(methoxymethyl)pyridin-3-yl]-18,18-dimethyl-9,15-dioxo-16-oxa-10,22,28-triazapentacyclo[18.5.2.1^2,^6.1^10,^14.0^23,^27]nonacosa-1(26),2,4,6(29),20,23(27),24-heptaen-8-yl]-3-methylbutanamide]
EC50 [1]: < 5 µM | IC50 (NCI-H358 (K-Ras G12C); [2]): 0.01 to 0.1 µM

C=CC(=O)N1CC[C@H](C(=O)N(C)[C@H](C(=O)N[C@H]2Cc3cc(O)cc(c3)-c3ccc4c(c3)c(c(-c3cccnc3COC)n4CC)CC(C)(C)COC(=O)[C@@H]3CCCN(N3)C2=O)C2CCCC2)C1 [Example A55]
EC50 [1]: < 5 µM | IC50 (NCI-H358 (K-Ras G12C); [2]): < 0.01 µM

C=CC(=O)N1C[C@H](C)[C@H](C(=O)N(C)[C@H](C(=O)N[C@H]2Cc3cc(O)cc(c3)-c3ccc4c(c3)c(c(-c3cccnc3COC)n4CC)CC(C)(C)COC(=O)[C@@H]3CCCN(N3)C2=O)C(C)C)C1 [Example A56]
EC50 [1]: < 5 µM | IC50 (NCI-H358 (K-Ras G12C); [3]): < 0.01 µM

C=CC(=O)N1C[C@H](C)[C@H](C(=O)N(C)[C@H](C(=O)N[C@H]2Cc3cc(O)cc(c3)-c3ccc4c(c3)c(c(-c3cccnc3COC)n4CC)CC(C)(C)COC(=O)[C@@H]3CCCN(N3)C2=O)C2CCCC2)C1 [Example A57]
EC50 [1]: < 5 µM | IC50 (NCI-H358 (K-Ras G12C); [2]): < 0.01 µM

C=CC(=O)N1CC[C@H](C(=O)N(C)[C@H](C(=O)N[C@H]2Cc3cc(O)cc(c3)-c3ccc4c(c3)c(c(C3=C(COC)COCC3)n4CC)CC(C)(C)COC(=O)[C@@H]3CCCN(N3)C2=O)C(C)C)C1 [Example A58]
EC50 [1]: < 5 µM | IC50 (NCI-H358 (K-Ras G12C); [2]): 0.01 to 0.1 µM

C=CC(=O)N1CC[C@H](C(=O)N(C)[C@H](C(=O)N[C@H]2Cc3cc(OC(C)=O)cc(c3)-c3ccc4c(c3)c(c(-c3ccccc3CN(C)C)n4CC)CC(C)(C)COC(=O)[C@@H]3CCCN(N3)C2=O)C(C)C)C1 [Example A59]
EC50 [1]: < 5 µM | IC50 (NCI-H358 (K-Ras G12C); [3]): 0.1 to 1 µM

C=CC(=O)N1CC[C@H](C(=O)N(C)[C@H](C(=O)N[C@H]2Cc3cc(O)cc(c3)-c3ccc4c(c3)c(c(-c3cccnc3N3CC(OC)C3)n4CC)CC(C)(C)COC(=O)[C@@H]3CCCN(N3)C2=O)C(C)C)C1 [Example A60]
EC50 [1]: < 5 µM | IC50 (NCI-H358 (K-Ras G12C); [2]): 0.01 to 0.1 µM

C=CC(=O)N1CC[C@H](C(=O)N(C)[C@H](C(=O)N[C@H]2Cc3cc(O)cc(c3)-c3ccc4c(c3)c(c(-c3cncnc3)n4CC)CC(C)(C)COC(=O)[C@@H]3CCCN(N3)C2=O)C(C)C)C1 [Example A61]
EC50 [1]: < 5 µM | IC50 (NCI-H358 (K-Ras G12C); [2]): 0.01 to 0.1 µM

C=CC(=O)N1CC[C@H](C(=O)N(C)[C@H](C(=O)N[C@H]2Cc3cc(O)cc(c3)-c3ccc4c(c3)c(c(-c3cncc(C#N)c3)n4CC)CC(C)(C)COC(=O)[C@@H]3CCCN(N3)C2=O)C(C)C)C1 [Example A62]
EC50 [1]: < 5 µM | IC50 (NCI-H358 (K-Ras G12C); [2]): 0.01 to 0.1 µM

C=CC(=O)N1CC[C@@]2(CCCN([C@H](C(=O)N[C@H]3Cc4cc(O)cc(c4)-c4ccc5c(c4)c(c(-c4ccccc4CCOC)n5CC)CC(C)(C)COC(=O)[C@@H]4CCCN(N4)C3=O)C(C)C)C2=O)C1 [Example A63]
EC50 [1]: < 5 µM | IC50 (NCI-H358 (K-Ras G12C); [2]): 0.1 to 1 µM

C=CC(=O)N1CC[C@H](C(=O)N(C)[C@H](C(=O)N[C@H]2Cc3cc(O)cc(c3)-c3ccc4c(c3)c(c(C3=C(COC)CCCC3)n4CC)CC(C)(C)COC(=O)[C@@H]3CCCN(N3)C2=O)C(C)C)C1 [Example A64]
EC50 [1]: < 5 µM | IC50 (NCI-H358 (K-Ras G12C); [2]): 0.01 to 0.1 µM

C=CC(=O)N1CC[C@H](C(=O)N(C)[C@H](C(=O)N[C@H]2Cc3cc(O)cc(c3)-c3ccc4c(c3)c(c([C@@H]3CC=CN=C3COC)n4CC)CC(C)(C)COC(=O)[C@@H]3CCCN(N3)C2=O)C(C)C)C1 [Example A65]
EC50 [1]: < 5 µM | IC50 (NCI-H358 (K-Ras G12C); [2]): 0.1 to 1 µM

C=CC(=O)N1CC[C@H](C(=O)N(C)[C@H](C(=O)N[C@H]2Cc3cc(O)cc(c3)-c3ccc4c(c3)c(c(-c3cccnc3COC)n4C)CC(C)(C)COC(=O)[C@@H]3CCCN(N3)C2=O)C(C)C)C1 [Example A66]
EC50 [1]: < 5 µM | IC50 (NCI-H358 (K-Ras G12C); [2]): 0.01 to 0.1 µM
